Test results taken from patent US7102009B2, “Substituted amine derivatives and methods of use” (Amgen Inc., priority 2001, dated 2006).

system: Human Umbilical Vein Endothelial cells (VEGF-stimulated HUVEC proliferation); test: HUVEC Proliferation Assay (VEGF-stimulated); format: cell-based; conditions: VEGF 50 ng/mL, 72 h incubation, CyQuant readout, read-out: inhibited VEGF-stimulated HUVEC proliferation at a level below (IC50)
In short: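 Pooled-donor HUVECs (passage 2–3) seeded in DMEM+10% FBS for 22 h, then pre-treated 2–3 h with five-point, five-fold compound dilutions (0.25% DMSO final). Stimulated with 50 ng/mL VEGF (bFGF 20 ng/mL on separate plates) for 72 h at 37 °C. CyQuant fluorescence (485/530 nm) after freeze-thaw; IC50 from 4-parameter fit.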

`CC(=O)N1CCC[C@@H]1COc1cc(NC(=O)c2cccnc2Nc2ccc3cn[nH]c3c2)cc(C(F)(F)F)c1` [Example 580, N-(3-((((2R)-1-Acetyl-2-pyrrolidinyl)methyl)oxy)-5-(trifluoromethyl)phenyl)-2-(1H-indazol-6-ylamino)-3-pyridinecarboxamide] was tested. Which IC50 did it give?
Its IC50 is less than 50 nM.

How did the IC50 turn out when `CN1CCC[C@H]1COc1cc(NC(=O)c2cccnc2Nc2ccc3cn[nH]c3c2)cc(C(F)(F)F)c1` [Example 104, 2-(1H-Indazol-6-ylamino)-N-[3-(1-methylpyrrolidin-2-ylmethoxy)-5-trifluoromethyl-phenyl]-nicotinamide] was run?
The IC50 was less than 50 nM.

`CC(C)(C)c1ccc(NC(=O)c2cccnc2Nc2ccc3cn[nH]c3c2)cc1NC(=O)CN1CCOCC1` [Example 588, N-(4-(1,1-Dimethyl)-3-((4-morpholinylacetyl)amino)phenyl)-2-(1H-indazol-6-ylamino)-3-pyridinecarboxamide] was tested. Which IC50 did it give?
The IC50 was less than 50 nM.

Which IC50 does the source give for `CS(=O)(=O)c1ccc(NC(=O)c2cccnc2Nc2ccc3cn[nH]c3c2)cc1` [Example 46, [2-(1H-Indazol-6-ylamino)(3-pyridyl)]-N-[4-(methylsulfonyl)phenyl]carboxamide] here?
The IC50 was less than 50 nM.

`CC(C)(C)c1ccc(NC(=O)c2cccnc2Nc2ccc3cn[nH]c3c2)cc1NCCO` [Example 115, N-[4-tert-Butyl-3-(2-hydroxy-ethylamino)-phenyl]-2-(1H-indazol-6-ylamino)-nicotinamide] was tested. Which IC50 did it give?
The IC50 was less than 50 nM.

For `CC(C)(C)c1ccc(NC(=O)c2cccnc2Nc2ccc3cn[nH]c3c2)cc1CCCN1CCOCC1` [Example 57, N-[4-(tert-Butyl)-3-(3-morpholin-4-ylpropyl)phenyl][2-(1H-indazol-6-ylamino)(3-pyridyl)]carboxamide], which IC50 is on record?
The IC50 was less than 50 nM.

`CC(C)(C)c1ccc(NC(=O)c2cccnc2Nc2ccc3cn[nH]c3c2)cc1NCCN1CCOCC1` [Example 116, N-[4-tert-Butyl-3-(2-morpholin-4-yl-ethylamino)-phenyl]-2-(1H-indazol-6-ylamino)-nicotinamide] was tested. Which IC50 did it give?
The IC50 was less than 50 nM.

Which IC50 does the source give for `CC(C)(C)c1ccc(NC(=O)c2ccc(F)nc2Nc2ccc3cn[nH]c3c2)cc1` [Example 66, N-[4-(tert-Butyl)phenyl][6-fluoro-2-(1H-indazol-6-ylamino)(3-pyridyl)]carboxamide] here?
The IC50 was less than 50 nM.

With `O=C(Nc1ccc(C(F)(F)C(F)(F)F)c(OCCN2CCCCC2)c1)c1cccnc1Nc1ccc2cn[nH]c2c1` [Example 81, 2-(1H-Indazol-6-ylamino)-N-[4-pentafluoroethyl-3-(2-piperidin-1-yl-ethoxy)-phenyl]-nicotinamide] as the molecule, how does the IC50 read?
The IC50 was less than 50 nM.

For `COc1ccc(NC(=O)c2cccnc2Nc2ccc3cn[nH]c3c2)cc1OCCN(C)C` [Example 37, N-{3-[2-(Dimethylamino)ethoxy]-4-methoxyphenyl)[2-(1H-indazol-6-ylamino)(3-pyridyl)]carboxamide], which IC50 is on record?
The IC50 was less than 50 nM.

Which IC50 does the source give for `CN1CCC(COc2cc(NC(=O)c3cccnc3Nc3ccc4cn[nH]c4c3)ccc2C(F)(F)C(F)(F)F)CC1` [Example 78, 2-(1H-Indazol-6-ylamino)-N-[3-(1-methyl-piperidin-4-ylmethoxy)-4-pentafluoroethyl-phenyl]-nicotinamide] here?
Its IC50 is less than 50 nM.

How did the IC50 turn out when `CN1CCC(N2CC(C)(C)c3ccc(NC(=O)c4cccnc4Nc4ccc5cn[nH]c5c4)cc32)CC1` [Example 48, N-[3,3-Dimethyl-1-(1-methyl(4-piperidyl))indolin-6-yl][2-(1H-indazol-6-ylamino)(3-pyridyl)]carboxamide] was run?
Its IC50 is less than 50 nM.

Which IC50 does the source give for `NS(=O)(=O)c1cc(NC(=O)c2cccnc2Nc2ccc3cn[nH]c3c2)ccc1Cl` [Example 13, N-3-aminosulfonyl(4-chloro-phenyl)[2-(1H-indazol-6-ylamino)(3-pyridyl)]carboxamide] here?
Its IC50 is less than 50 nM.

`CC1(C)CCC(C)(C)c2cc(NC(=O)c3cccnc3Nc3ccc4cn[nH]c4c3)ccc21` [Example 77, 2-(1H-Indazol-6-ylamino)-N-(5,5,8,8-tetramethyl-5,6,7,8-tetrahydro-naphthalen-2-yl)-nicotinamide] was tested. Which IC50 did it give?
Its IC50 is less than 50 nM.

`CC1(C)CN(CC2CCNCC2)c2cc(NC(=O)c3cccnc3Nc3ccc4cn[nH]c4c3)ccc21` [Example 41, N-[3,3-Dimethyl-1-(4-piperidylmethyl)indolin-6-yl][2-(1H-indazol-6-ylamino)(3-pyridyl)]carboxamide] was tested. Which IC50 did it give?
The IC50 was less than 50 nM.

With `CS(=O)(=O)Nc1cc(NC(=O)c2cccnc2Nc2ccc3cn[nH]c3c2)cc(C(F)(F)F)c1` [Example 586, 2-(1H-Indazol-6-ylamino)-N-(3-((methylsulfonyl)amino)-5-(trifluoromethyl)phenyl)-3-pyridinecarboxamide] as the molecule, how does the IC50 read?
The IC50 was less than 50 nM.

With `O=C(Nc1ccc(C(F)(F)C(F)(F)F)cc1)c1cccnc1Nc1cccc2c1CNC2=O` [Example 602, 2-(1-Oxo-2,3-dihydro-1H-isoindol-4-ylamino)-N-(4-pentafluoroethyl-phenyl)-nicotinamide] as the molecule, how does the IC50 read?
The IC50 was less than 50 nM.

`O=C(Nc1cc(CCCN2CCCCC2)cc(C(F)(F)F)c1)c1cccnc1Nc1ccc2cn[nH]c2c1` [Example 71, 2-(1H-Indazol-6-ylamino)-N-[3-(3-piperidin-1-yl-propyl)-5-trifluoromethyl-phenyl]-nicotinamide] was tested. Which IC50 did it give?
Its IC50 is less than 50 nM.

For `O=C(Nc1ccc(C(F)(F)F)c(OC[C@H]2CCCN2)c1)c1cccnc1Nc1ccc2cn[nH]c2c1` [Example 85, 2-(1H-Indazol-6-ylamino)-N-[3-(pyrrolidin-2-ylmethoxy)-4-trifluoromethyl-phenyl]-nicotinamide], which IC50 is on record?
The IC50 was less than 50 nM.

How did the IC50 turn out when `CC(C)(C)c1ccc(NC(=O)c2cccnc2Nc2ccc3cn[nH]c3c2)cc1N1CCNCC1` [Example 98, N-(4-tert-Butyl-3-piperazin-1-yl-phenyl)-2-(1H-indazol-6-ylamino)-nicotinamide] was run?
The IC50 was less than 50 nM.

For `CN1CCC(CN2CC(C)(C)c3ccc(NC(=O)c4cccnc4Nc4ccc5cn[nH]c5c4)cc32)CC1` [Example 42, N-[3,3-Dimethyl-1-(1-methyl-piperidin-4-ylmethyl)-2,3-dihydro-1H-indol-6-yl]-2-(1H-indazol-6-ylamino)-nicotinamide], which IC50 is on record?
The IC50 was less than 50 nM.

How did the IC50 turn out when `CN(C)CCCc1cc(NC(=O)c2cccnc2Nc2ccc3cn[nH]c3c2)cc(C(F)(F)F)c1` [Example 51, N-{3-[3-(Dimethylamino)propyl]-5-(trifluoromethyl)phenyl}[2-(1H-indazol-6-ylamino)(3-pyridyl)]carboxamide] was run?
The IC50 was less than 50 nM.

Which IC50 does the source give for `CN1CCC[C@@H]1COc1cc(NC(=O)c2cccnc2Nc2ccc3cn[nH]c3c2)cc(C(F)(F)F)c1` [Example 577, 2-(1H-Indazol-6-ylamino)-N-(3-((((2R)-1-methyl-2-pyrrolidinyl)methyl)oxy)-5-(trifluoromethyl)phenyl)-3-pyridinecarboxamide] here?
The IC50 was less than 50 nM.

Which IC50 does the source give for `O=C(Nc1ccc2c(c1)CN(CCN1CCOCC1)CC2)c1cccnc1Nc1ccc2cn[nH]c2c1` [Example 118, 2-(1H-Indazol-6-ylamino)-N-[2-(2-morpholin-4-yl-ethyl)-1,2,3,4-tetrahydro-isoquinolin-7-yl]-nicotinamide] here?
The IC50 was less than 50 nM.

How did the IC50 turn out when `CCC(C)c1ccc(NC(=O)c2cccnc2Nc2ccc3cn[nH]c3c2)cc1` (stereo not shown) [Example 7, [2-(1H-Indazol-6-ylamino)(3-pyridyl)]-N-[4-(methylpropyl)phenyl]carboxamide] was run?
Its IC50 is less than 50 nM.
